Data from patent US20040248887A1, “Inhibitors of cathepsin S” (IRM LLC, priority 2003, published 2004).

Target: Cathepsin S (Homo sapiens, UniProt P25774)
Assay: Cathepsin S inhibition, fluorogenic peptide substrate kinetic assay
Format: biochemical
Settings: Table II; Cathepsin S inhibition constant, pH5.5; read-out: Ki Cat. S
Source text: “Inhibition constant”, Ki, is the dissociation constant of the enzyme-inhibitor complex, or the reciprocal of the binding affinity of the inhibitor to the enzyme. […] The inhibited rates are then fit by nonlinear regression to the following equation: [formula]
where vo is the initial rate of substrate processing in the absence of inhibitor, v; is the initial rate of substrate processing at a concentration [I] of inhibitor, Km is the steady state Michaelis constant (Fersht, A. Structure and Mechanism in Protein Science. New York, W.H. Freeman and Company, 1999), and [S] is the concentration of competitive substrate.
The assumption being made for the classical inhibition described above is that the free inhibitor concentration is equal to the total inhibitor concentration.
The inhibition constant, Ki, can be determined from the apparent inhibition constant, Ki^app, for competitive inhibitors by using the following relationship: [formula]
The optimal substrate for cathepsin S, acetyl-histidine-proline-valine-lysine-amino carbamoyl coumarin, was identified from screening a combinatorial library of fluorogenic peptide substrates (Harris, J. L., B. J. Backes, et al., Proc Natl Acad Sci USA 2000, 97(14), 7754-9). Kinetic measurements are performed in a total reaction volume of 30 μl in 384-well microtiter plates. […] The reactions are initiated by adding the substrate, acetyl-histidine-proline-valine-lysine-amino carbamoyl coumarin, to a final concentration of 50 μM. The rate of substrate hydrolysis is measured by monitoring the increase in fluorescence at an excitation wavelength of 380 nm and an emission wavelength of 450 nm that results from cleavage of the aniline bond in the substrate by the enzyme. The apparent inhibition constants for the compounds are determined from the enzyme progress curves (Kuzmic, P., K. C. Elrod, et al., Anal Biochem 2000, 286(1), 45-50) and are then used to calculate the inhibition constants for competitive inhibitors.

Cathepsin S, sequence (P25774 115-331, species assumed): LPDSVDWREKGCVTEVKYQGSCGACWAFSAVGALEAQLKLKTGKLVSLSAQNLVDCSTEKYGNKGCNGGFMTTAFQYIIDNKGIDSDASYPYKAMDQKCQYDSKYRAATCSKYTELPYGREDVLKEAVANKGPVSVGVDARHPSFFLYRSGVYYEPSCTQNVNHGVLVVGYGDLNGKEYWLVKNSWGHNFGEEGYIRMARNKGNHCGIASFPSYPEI

Molecule	Ki
O=C(NC(C(=O)N[C@@H](COCc1ccccc1)CN1CCc2cc(F)ccc21)c1ccc(Cl)cc1Cl)c1ccco1 (mixture of isomers) [Compound 207, N-(R,S)-((3-(benzyloxy)-1-(5-fluoroindolin-1-yl)propan-2-(R)-ylcarbamoyl)(2,4-dichlorophenyl)methyl)furan-2-carboxamide]	< 100 nM
COc1ccc(NC[C@H](COCc2ccccc2)NC(=O)[C@H](CC(C)C)NC(=O)c2cccc(C)c2)cc1 [Compound 35, N-{1-(S)-[1-(R)-Benzyloxymethyl-2-(4-methoxy-phenylamino)-ethylcarbamoyl]-3-methyl-butyl}-3-methyl-benzamide]	< 100 nM
O=C(NC(C(=O)NC(CO)CN1CCc2cc(F)ccc21)c1ccc(Cl)cc1Cl)c1ccco1 [Compound 212, N-(S)-((3-(5-fluoroindolin-1-yl)-1-hydroxypropan-2-(R)-ylcarbamoyl)(2,4-dichlorophenyl)methyl) furan-2-carboxamide]	< 1000 nM
O=C(Nc1ccc(-c2ccccc2)cc1)N[C@@H](CC1CCCCC1)C(=O)NCCN1CCc2cc(F)ccc21 [Compound 225, (S)-2-(3-Biphenyl-4-yl-ureido)-3-cyclohexyl-N-[2-(5-fluoro-2,3-dihydro-indol-1-yl)-ethyl]-propionamide]	< 1000 nM
O=C(N[C@@H](CC1CCCCC1)C(=O)NCCN1CCc2cc(F)ccc21)C1CCN(S(=O)(=O)c2ccccc2)CC1 [Compound 58, 1-Benzenesulfonyl-piperidine-4-carboxylic acid (S)-{2-cyclohexyl-1-[2-(5-fluoro-2,3-dihydro-indol-1-yl)-ethylcarbamoyl]-ethyl}-amide]	< 1000 nM
CC(C)(C)C[C@H](NC(=O)OC(C)(C)C)C(=O)N[C@@H](CC#N)CN1CCc2cc(F)ccc21 [Compound 164, {1-(S)-[2-Cyano-1-(S)-(5-fluoro-2,3-dihydro-indol-1-ylmethyl)-ethylcarbamoyl]-3,3-dimethyl-butyl}-carbamic acid tert-butyl ester]	< 1000 nM
O=C(N[C@@H](CC1CCCCC1)C(=O)NCCN1CCc2cc(F)ccc21)c1ccc(OC2CCNCC2)cc1 [Compound 67, N-(S)-{2-cyclohexyl-1-[2-(5-fluoro-2,3-dihydro-indol-1-yl)-ethylcarbamoyl]-ethyl}-4-(piperidin-4-yloxy)-benzamide]	< 1000 nM
CC(C(=O)N[C@@H](CC1CCCCC1)C(=O)NCCN1CCc2cc(F)ccc21)c1ccc(-c2ccccc2)c(F)c1 (stereo partly drawn) [Compound 59, N-{2-cyclohexyl-1-(S)-[2-(5-fluoro-2,3-dihydro-indol-1-yl)-ethylcarbamoyl]-ethyl}-2-(2-fluoro-biphenyl-4-yl)-propionamide]	< 100 nM
C[C@@H](CN1c2ccc(F)cc2CC1(C)C)NC(=O)[C@H](CC1CCCCC1)NC(=O)C1CCOC1 (stereo partly drawn) [Compound 140, Tetrahydrofuran-3-carboxylic acid {2-cyclohexyl-1-(S)-[2-(5-fluoro-2,2-dimethyl-2,3-dihydro-indol-1-yl)-1-(S)-methyl-ethylcarbamoyl]-ethyl}-amide]	< 100 nM
(S)-{2-Cyclohexyl-1-[2-(5-fluoro-2,3-dihydro-indol-1-yl)-ethylcarbamoyl]-ethyl}-carbamic acid benzyl ester [Compound 220]	< 1000 nM
Cc1cccc(C(=O)N[C@@H](CC(C)(C)C)C(=O)NCCN2CCc3cc(F)ccc32)c1 [Compound 203, N-((S)-1-(2-(5-fluoroindolin-1-yl)ethylcarbamoyl)-3,3-dimethylbutyl)-3-methylbenzamide]	< 100 nM
C[C@@H](CN1CC(C)(C)c2cc(F)ccc21)NC(=O)[C@H](CC1CCCCC1)NC(=O)O[C@@H]1CCOC1 [Compound 216, {2-Cyclohexyl-1-(S)-[2-(5-fluoro-3,3-dimethyl-2,3-dihydro-indol-1-yl)-1-(S)-methyl-ethylcarbamoyl]-ethyl}-carbamic acid (R)-tetrahydrofaran-3-yl ester]	< 100 nM
CC(C(=O)N[C@@H](CC1CCCCC1)C(=O)NCCN1CCc2cc(F)ccc21)c1ccc(F)cc1 (stereo partly drawn) [Compound 62, N-{2-cyclohexyl-1-(S)-[2-(5-fluoro-2,3-dihydro-indol-1-yl)-ethylcarbamoyl]-ethyl}-2-(4-fluoro-phenyl)-propionamide]	< 1000 nM
COc1cccc(C(=O)N[C@@H](CCC2CCCCC2)C(=O)NCCN2CCc3cc(OCc4ccccc4)ccc32)c1 [Compound 19, (S)-N-{3-Cyclohexyl-1-[2-(5-benzyloxy-2,3-dihydro-indol-1-yl)-ethylcarbamoyl]-propyl}-3-methoxy-benzamide]	< 10000 nM

Now from value to molecule:

Ki	Molecule
< 100 nM	C[C@@H](CNc1ccc(OC(F)F)cc1)NC(=O)[C@H](CC1CCCCC1)NC(=O)c1ccc(-c2ccc(F)cc2)o1 [Compound 104, 5-(4-Fluoro-phenyl)-furan-2-carboxylic acid {2-cyclohexyl-1-(S)-[2-(4-difluoromethoxy-phenylamino)-1-(S)-methyl-ethylcarbamoyl]-ethyl}-amide]
< 100 nM	C[C@@H](CNc1ccc(OC(F)(F)F)cc1)NC(=O)[C@H](CC1CCCCC1)NC(=O)[C@H]1CCCO1 [Compound 30, Tetrahydrofuran-2-(R)-carboxylic acid {2-cyclohexyl-1-(S)-[1-(S)-methyl-2-(4-trifluoromethoxy-phenylamino)-ethylcarbamoyl]-ethyl}-amide]
< 100 nM	C[C@@H](CNc1ccc(OC(F)(F)F)cc1)NC(=O)[C@H](CC1CCCCC1)NC(=O)c1nnc(-c2cccc(F)c2)o1 [Compound 147, 5-(3-Fluoro-phenyl)-[1,3,4]oxadiazole-2-carboxylic acid {2-cyclohexyl-1-(S)-[1-(S)-methyl-2-(4-trifluoromethoxy-phenylamino)-ethylcarbamoyl]-ethyl}-amide]
< 100 nM	C[C@@H](CNc1ccc(OC(F)(F)F)cc1)NC(=O)[C@H](CC1CCCCC1)NC(=O)c1cc(-c2ccc(F)cc2)no1 [Compound 146, 3-(4-Fluoro-phenyl)-isoxazole-5-carboxylic acid {2-cyclohexyl-1-(S)-[1-(S)-methyl-2-(4-trifluoromethoxy-phenylamino)-ethylcarbamoyl]-ethyl}-amide]
< 10000 nM	C[C@@H](CNc1ccc(OC(F)(F)F)cc1)NC(=O)[C@H](CC1CCCCC1)NC(=O)O[C@@H]1CCNC1 [Compound 187, {2-Cyclohexyl-1-(S)-[1-(S)-methyl-2-(4-trifluoromethoxy-phenylamino)-ethylcarbamoyl]-ethyl}-carbamic acid pyrrolidin-3-(R)-yl ester]
< 1000 nM	Cc1cc(NC[C@H](C)NC(=O)[C@H](CC2CCCCC2)NC(=O)c2ccc(-c3cccc(F)c3)o2)no1 [Compound 133, 5-(3-Fluoro-phenyl)-furan-2-carboxylic acid {2-cyclohexyl-1-(S)-[1-(S)-methyl-2-(5-methyl-isoxazol-3-ylamino)-ethylcarbamoyl]-ethyl}-amide]
< 100 nM	C[C@@H](CNc1cccc(F)c1F)NC(=O)[C@H](CC1CCCCC1)NC(=O)c1ccc(-c2cccc(F)c2)o1 [Compound 90, 5-(3-Fluoro-phenyl)-furan-2-carboxylic acid {2-cyclohexyl-1-(S)-[2-(2,3-difluoro-phenylamino)-1-(S)-methyl-ethylcarbamoyl]-ethyl}-amide]
